For data set [1], the system named is WT HIV-1. Nature of the data set: microbe, parasite or virus in culture. The data set is classed as cell-based. The settings on record: Human immunodeficiency virus 1, MT4, read-out: Cell-based assay (MT-4) EC50/nM WT.
The test system of data set [2] is recombinant HIV-1 10I 48V 54V 82A. Nature of the data set: microbe, parasite or virus in culture. The data set is classed as cell-based. The settings on record: Human immunodeficiency virus 1, MT4, read-out: Cell-based assay (MT-4) EC50/nM 48V 54V 82A.
Data set [3] has as its system recombinant HIV-1 30N 50S 82I 88D. Nature of the data set: microbe, parasite or virus in culture. The data set is classed as cell-based. The following applies: Human immunodeficiency virus 1, MT4, read-out: Cell-based assay (MT-4) EC50/nM 30N 82I 88D.
For data set [4], the system named is recombinant HIV-1 10I 84V 71V 73S 90M. Nature of the data set: microbe, parasite or virus in culture. The data set is classed as cell-based. The settings on record: Human immunodeficiency virus 1, MT4, read-out: Cell-based assay (MT-4) EC50/nM 84V 90M.
For the next data set, the target named is T1, HIV-1 protease 84V90M (Human immunodeficiency virus type 1 group M subtype B, UniProt P04585, I572V/L578M).
T1 construct: synthetic hexapeptide substrate cleavage by HIV-1 protease
Nature of the data set: Enzymatic assay, IC50 against 84V90M mutant protease. The data set is classed as biochemical.

For data set [5], the system named is wild-type HIV-1 strain IIIB. The data set can be described thus: microbe, parasite or virus in culture. The data set is classed as cell-based. The settings on record: Human immunodeficiency virus 1, IIIB.
The test system of data set [6] is recombinant HIV-1 strains with resistance mutations in the protease gene. Nature of the data set: Cross-Resistance Profile Assay, whole panel. The following applies: {}. The data set is classed as cell-based.
A further data set can be described thus: in vivo. The settings on record: beagle, dog, po.
A short description of a further data set: in vitro. The settings on record: human.
The target of data set [7] is T2, recombinant HIV-1 protease (Human immunodeficiency virus type 1 group M subtype B, UniProt P04585).
T2 construct: Enzyme: recombinant HIV-1 protease expressed in E.Coli; purchased Bachem California, Inc. H-9040; host or cells: E. coli
Nature of the data set: biochemical.

The target of another data set is T3, WT HIV protease (Human immunodeficiency virus type 1 group M subtype B, UniProt P04585).
T3 construct: synthetic hexapeptide substrate cleavage by HIV-1 protease
Nature of the data set: biochemical. Set-up: species or system HIV-1.

A further data set deals with 84V90M HIV protease (Human immunodeficiency virus type 1 group M subtype B, UniProt P04585, I572V/L578M). The data set can be described thus: biochemical. On the set-up: species or system HIV-1.
Data set [8] concerns WT HIV-1. Nature of the data set: microbe, parasite or virus in culture. The data set is classed as cell-based.
Another data set deals with HIV-1 84V90M. Nature of the data set: microbe, parasite or virus in culture. The data set is classed as cell-based. The settings on record: MT-4, 84V90M, read-out: Cell-based assay (MT-4) EC50/nM 84V90M.
Another data set concerns HIV-1 30N82I88D. The data set can be described thus: microbe, parasite or virus in culture. The settings on record: MT-4, 30N82I88D, read-out: Cell-based assay (MT-4) EC50/nM 30N82I88D. The data set is classed as cell-based.
Another data set deals with HIV-1 48V54V82A. The data set can be described thus: microbe, parasite or virus in culture. The data set is classed as cell-based. The following applies: MT-4, 48V54V82A, read-out: Cell-based assay (MT-4) EC50/nM 48V54V82A.
A further data set relates to HIV-1 46I50V. The data set can be described thus: microbe, parasite or virus in culture. The data set is classed as cell-based. The following applies: MT-4, 46I50V, read-out: Cell-based assay (MT-4) EC50/nM 46I50V.
Data set [9] concerns the target porcine liver carboxylesterase (PLCE) (Sus scrofa, UniProt Q29550). The data set is classed as biochemical. The settings on record: read-out: IC50 (μM) PLCE.
The subject of data set [10] is recombinant HIV-1 46I 47V 50V. Nature of the data set: microbe, parasite or virus in culture. The data set is classed as cell-based. The following applies: Human immunodeficiency virus 1, MT4, read-out: Cell-based assay (MT-4) EC50/nM 47I 50V.
Data set [11] concerns recombinant HIV-1 10I 48V 71V 82A 90M. Nature of the data set: microbe, parasite or virus in culture. The data set is classed as cell-based. The following applies: Human immunodeficiency virus 1, MT4, read-out: Cell-based assay (MT-4) EC50/nM 48V 82A 90M.
For data set [12], the system named is recombinant HIV-1 48V 54V 71V 82S. Nature of the data set: microbe, parasite or virus in culture. The settings on record: Human immunodeficiency virus 1, MT4, read-out: Cell-based assay (MT-4) EC50/nM 48V 54V 82S. The data set is classed as cell-based.
Setting [13] is: Enzymatic assay, 84V90M, read-out: 84V90M IC50/nM.
Where [14] appears, read: read-out: Cell-based assay (MT-4) EC50/nM WT.
[15] abbreviates: Human immunodeficiency virus 1, read-out: Cell-based assay (MT-4) EC50/nM WT.

Like-named read-outs stand apart in the source and are kept apart here. Peptide text beside a SMILES is read from it. * marks the point of attachment. MeOSuc = COC(=O)CCC(=O)*; CH2Cl = ClC*

Sequence of porcine liver carboxylesterase (PLCE) (Q29550 whole entry): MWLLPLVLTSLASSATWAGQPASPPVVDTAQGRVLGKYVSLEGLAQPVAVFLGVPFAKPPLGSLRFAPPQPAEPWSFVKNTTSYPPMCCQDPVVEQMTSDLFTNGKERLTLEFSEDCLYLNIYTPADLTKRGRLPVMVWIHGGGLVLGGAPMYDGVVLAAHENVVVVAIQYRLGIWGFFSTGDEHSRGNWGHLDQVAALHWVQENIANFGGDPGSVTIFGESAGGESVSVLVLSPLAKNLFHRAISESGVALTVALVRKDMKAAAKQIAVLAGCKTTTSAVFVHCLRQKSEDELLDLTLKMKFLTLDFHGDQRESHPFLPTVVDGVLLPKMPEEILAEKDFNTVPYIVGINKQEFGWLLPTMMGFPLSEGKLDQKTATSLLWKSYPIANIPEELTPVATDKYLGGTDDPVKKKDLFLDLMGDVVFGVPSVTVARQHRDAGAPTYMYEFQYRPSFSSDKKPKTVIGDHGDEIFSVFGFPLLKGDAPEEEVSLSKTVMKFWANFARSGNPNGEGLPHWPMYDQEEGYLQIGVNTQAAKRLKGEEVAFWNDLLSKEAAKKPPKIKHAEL

As for `O=C1N(Cc2ccccc2)C(Cc2ccccc2)C(O)C(O)C(Cc2ccc(OCP(=O)(OCc3ccccc3)OCc3ccccc3)cc2)N1Cc1ccccc1` (centres unmarked), the EC50 in the data set with WT HIV-1 [1] is 1770 nM; in data set [2], more than 6000 nM; in data set [3], 3140 nM; in data set [4] it was more than 6000 nM. In addition, the IC50 at HIV-1 protease 84V90M came to 0.158 µM.
As for `O=C1N(Cc2ccccc2)C(Cc2ccccc2)C(O)C(O)C(Cc2ccc(OCP(=O)(O)O)cc2)N1Cc1ccccc1` (centres unmarked), the EC50 (with WT HIV-1 [1]; in data set [4]) was more than 6000 nM each time. Also, the IC50 at HIV-1 protease 84V90M came to 0.21 µM.
On to `CC(C)CN(C[C@@H](O)[C@H](Cc1ccccc1)NC(=O)O[C@H]1CCOC1)S(=O)(=O)c1ccc(N)cc1` [Amprenavir, reference compound], for which the EC50 in [5] is less than 0.05 µM. The EC50 in data set [5] (MT2, 120 h, read-out: Anti-HIV-1 Cell Culture Activity EC50) amounted to 0.016 ± 0.0022 µM. The “Total No. of Resistant Viruses” value in [6] is 4. In the data set “in vivo”, this compound showed an AUC of 102 µM·h and a half-life of 1.7 h. Also, the CC50 in the data set “in vitro” is more than 50 µM.
As for `Nc1n[nH]c2ccc(CN3C(=O)N(CCCCO)C(Cc4ccccc4)C(O)C(O)C3Cc3ccccc3)cc12` (centres unmarked) [CH2OH], the Ki in data set [7] (read-out: Ki) stood at 0.017 nM. Moreover, the IC50 at WT HIV protease (read-out: WT IC50/nM) is 2.8 nM; at 84V90M HIV protease (setting [13]), 31 nM. In addition, the EC50 stood at 253 nM in the data set with WT HIV-1 [8] (setting [14]); 1110 nM in the data set with HIV-1 84V90M; 486 nM with HIV-1 30N82I88D; 413 nM in the data set on HIV-1 48V54V82A; 524 nM with HIV-1 46I50V.
Regarding `COC(=O)CCC(=O)N[C@@H](C)C(=O)N[C@@H](C)C(=O)N1CCC[C@H]1C(=O)N[C@@H](C)C(=O)CCl` [MeOSuC-Ala-Ala-Pro-Ala-CMK] (MeOSuc-AAPA-CH2Cl), in data set [9], the IC50 is more than 1000 µM.
Still for that read-out and setting: the result for `COC(=O)CCC(=O)N[C@@H](C)C(=O)N[C@@H](C)C(=O)N1CCC[C@H]1C(=O)N[C@H](C(=O)CCl)C(C)C` [MeOSuc-Ala-Ala-Pro-Val-CMK] (MeOSuc-AAPV-CH2Cl) reads more than 1000 µM.
In data set [5], `Cc1c(O)cccc1C(=O)N[C@@H](CSc1ccccc1)[C@H](O)CN1C[C@H]2CCCC[C@H]2C[C@H]1C(=O)NC(C)(C)C` [Nelfinavir] came in with an EC50 of less than 0.05 µM. Also, in [6], the “Total No. of Resistant Viruses” value came out at 9. Also, in the data set on quiescent PBMC, the “distribution between cytosol and membrane fractions” value is reported as “present only in the membrane fractions”. For the same compound, in the data set “in vivo”, the AUC stood at 33 µM·h and the half-life is 3 h.
On to `CCOP(=O)(COc1ccc(CC2C(O)C(O)C(Cc3ccc(OC)cc3)N(Cc3cccc(N)c3)C(=O)N2Cc2cccc(N)c2)cc1)OCC` (centres unmarked) [OCH3/Ph-mNH2/OCH2PO3Et2], for which the EC50 in the data set with WT HIV-1 [1] turned out to be 63 nM; in data set [2] it was 202 nM; in [10], 36 nM; in data set [3], 18 nM; in data set [11] it was 102 nM; in [12], 117 nM. Moreover, the EC50 in data set [4] turned out to be 535 nM. The same compound gave an IC50 on HIV-1 protease 84V90M of 0.056 µM.
Consider `CCOP(=O)(CCNC(=O)Oc1ccc(CC2C(O)C(O)C(Cc3ccc(OC)cc3)N(Cc3ccc(O)cc3)C(=O)N2Cc2ccc(O)cc2)cc1)OCC` (centres unmarked) [OCH3/Ph-pOH/OCONH(CH2)2PO3Et2], for which the EC50 with WT HIV-1 [1] is 33 nM; in data set [2], 74 nM; in data set [10], 223 nM; in data set [3], 31 nM; in [11], 55 nM; in [12], 51 nM. Further, the EC50 in [4] amounted to 495 nM. Moreover, at HIV-1 protease 84V90M, the IC50 was determined as 0.049 µM.
As to `Nc1n[nH]c2ccc(CN3C(=O)N(Cc4cccc(OCP(=O)(O)O)c4)C(Cc4ccccc4)C(O)C(O)C3Cc3ccccc3)cc12` (centres unmarked) [m-OCH2PO3H2], in data set [7] (Ki (nM)), the Ki was 0.254 nM. Also, the IC50 stood at 8.3 nM at WT HIV protease and 33 nM against 84V90M HIV protease. The EC50 with WT HIV-1 [8] (setting [15]) is more than 12000 nM.
For the compound `Nc1n[nH]c2ccc(CN3C(=O)N(Cc4cccc(OCP(=O)(O)Oc5ccccc5)c4)C(Cc4ccccc4)C(O)C(O)C3Cc3ccccc3)cc12` (centres unmarked) [m-OCH2PO3HPh], the Ki in data set [7] (Ki (nM), Enzymatic assay) was found to be 0.644 nM. Moreover, the IC50 turned out to be 17 nM at WT HIV protease and 65 nM at 84V90M HIV protease. Also, the EC50 in the data set on WT HIV-1 [8] (setting [15]) was 1740 nM; in the data set with HIV-1 84V90M (Human immunodeficiency virus 1), more than 6000 nM.
In the case of `Nc1n[nH]c2ccc(CN3C(=O)N(Cc4cccc(OCP(=O)(Oc5ccccc5)Oc5ccccc5)c4)C(Cc4ccccc4)C(O)C(O)C3Cc3ccccc3)cc12` (centres unmarked) [m-OCH2PO3Ph2], the inhibition constant (Ki) in [7] (Ki (nM), Enzymatic assay) was 0.543 nM. Moreover, the IC50 was 10 nM at WT HIV protease and 42 nM against 84V90M HIV protease. The EC50 with WT HIV-1 [8] (setting [15]) was 1350 nM; in the data set with HIV-1 84V90M (Human immunodeficiency virus 1) it was more than 6000 nM; in the data set with HIV-1 30N82I88D (Human immunodeficiency virus 1), 1540 nM; in the data set on HIV-1 48V54V82A (Human immunodeficiency virus 1), 2180 nM; in the data set on HIV-1 46I50V (Human immunodeficiency virus 1), 3380 nM.
On to `CCCCOC(=O)C(C)NP(=O)(COc1cccc(CN2C(=O)N(Cc3ccc4[nH]nc(N)c4c3)C(Cc3ccccc3)C(O)C(O)C2Cc2ccccc2)c1)NC(C)C(=O)OCCCC` (centres unmarked) [m-bis-Ala-Bu], for which, in data set [7] (read-out: Ki), the Ki worked out at 1.28 nM. Besides, the IC50 on WT HIV protease (read-out: WT IC50/nM) came out at 18 nM; at 84V90M HIV protease (setting [13]) it was 103 nM. The EC50 in the data set with WT HIV-1 [8] (setting [14]) is 1080 nM; in the data set with HIV-1 84V90M, more than 6000 nM; in the data set on HIV-1 30N82I88D, 2360 nM; in the data set on HIV-1 48V54V82A, 1850 nM; with HIV-1 46I50V, 1540 nM.
`CCOC(=O)C(C)NP(=O)(COc1cccc(CN2C(=O)N(Cc3ccc4[nH]nc(N)c4c3)C(Cc3ccccc3)C(O)C(O)C2Cc2ccccc2)c1)NC(C)C(=O)OCC` (centres unmarked) [m-bis-Ala-Et]: the Ki in data set [7] (read-out: Ki) turned out to be 1.99 nM. The figures for the IC50 on WT HIV protease (read-out: WT IC50/nM) and at 84V90M HIV protease (setting [13]) were 31 nM and 202 nM, respectively. In addition, the EC50 was 5620 nM in the data set on WT HIV-1 [8] (setting [14]), more than 6000 nM in the data set with HIV-1 84V90M and 1850 nM in the data set on HIV-1 30N82I88D.
As to `Nc1n[nH]c2ccc(CN3C(=O)N(Cc4ccc(OCP(=O)(O)O)cc4)C(Cc4ccccc4)C(O)C(O)C3Cc3ccccc3)cc12` (centres unmarked) [p-OCH2PO3H2], the Ki in data set [7] (Ki (nM)) is more than 5 nM. The IC50 on WT HIV protease stood at 551 nM; at 84V90M HIV protease, 1660 nM. Further, in the data set with WT HIV-1 [8] (setting [15]), the EC50 is more than 12000 nM.

The AUC is concentration integrated over time. A word on the half-life: it is the time in which the quantity being followed falls by half. As usually defined, the Ki is a measure of affinity in units of concentration, obtained from inhibition or displacement.

These data come from patent US20040121316A1 (priority 2002, published 2004).
